One compound from PMC9298352, “Design, Synthesis and Structural Analysis of Glucocerebrosidase Imaging Agents” (Chemistry (Weinheim an Der Bergstrasse, Germany), 2021) can be followed below.

Common to all, as to assay type: biochemical
In one test the target is T1, rhGBA (Homo sapiens, UniProt P04062).
T1 construct: made in house; host or cells: insect-baculovirus expression vector system (BEVS)
T1 sequence (P04062 40-536): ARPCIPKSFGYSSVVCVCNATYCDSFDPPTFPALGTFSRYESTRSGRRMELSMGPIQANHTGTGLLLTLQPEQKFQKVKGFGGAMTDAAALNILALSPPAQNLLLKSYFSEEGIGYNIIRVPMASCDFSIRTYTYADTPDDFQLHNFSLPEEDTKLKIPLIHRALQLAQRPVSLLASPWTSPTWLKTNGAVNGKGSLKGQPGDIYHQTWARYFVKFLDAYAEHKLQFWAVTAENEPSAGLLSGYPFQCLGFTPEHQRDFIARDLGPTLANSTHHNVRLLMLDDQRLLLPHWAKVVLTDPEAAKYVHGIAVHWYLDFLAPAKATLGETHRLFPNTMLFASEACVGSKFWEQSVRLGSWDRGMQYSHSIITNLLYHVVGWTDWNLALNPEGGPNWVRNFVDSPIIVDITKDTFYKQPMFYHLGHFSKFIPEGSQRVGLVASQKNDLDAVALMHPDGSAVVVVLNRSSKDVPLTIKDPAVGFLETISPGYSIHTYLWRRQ
The test is described as follows: Titration of ABP 6 and ABP 9 with constant rhGBA (gel-based labelling). The note with it: constant rhGBA 200 nM, ABP 150–0.001 nM, 37 °C, 30 mins. Here is the method: Maximum‐likelihood/σA weighted (2Fo–Fc) electron density map contoured to 1.0 σ (a=1.31 e^−/Å^3). […] Fluorescently labelled rhGBA visualized by Cy5 fluorescent readout. D=denatured protein sample.
The reactions were incubated at 37 °C for 30 mins and denatured with Laemmli (x3) sample buffer at 95 °C for 5 minutes. The samples were resolved by electrophoresis in 10 % SDS‐PAGE gels, running at 200 V for ∼50 minutes. Wet slab gels were scanned on fluorescence using an Amersham Typhoon 5 Imager (GE Healthcare) with λEX 635 nm; λEM >665 nm.

Test [1] has as its target T2, recombinant human GAA (rhGAA, Myozyme) (Homo sapiens, UniProt P10253).
T2 construct: purchased Sanofi Genzyme (Cambridge, MA, USA)
Put plainly: In vitro apparent IC50, fluorogenic substrate assay on rhGAA. Here is the method: All assays were performed in duplicate sets, each with 3 technical replicates at each inhibitor concentration. DMSO concentration was kept at 0.5 %–1 % (v/v) in all assays during incubation with compounds. In vitro apparent IC50 values were calculated by fitting data with [inhibitor] vs. response‐various slope (four parameters) function using Graphpad Prism 7.0 software. Average values and standard deviations were calculated from the two sets.

Test [2] concerns the target T3, GBA2 in mouse brain lysate (Mus musculus, UniProt Q69ZF3).
T3 construct: from tissue; host or cells: mouse brain
T3 sequence (Q69ZF3 1-918): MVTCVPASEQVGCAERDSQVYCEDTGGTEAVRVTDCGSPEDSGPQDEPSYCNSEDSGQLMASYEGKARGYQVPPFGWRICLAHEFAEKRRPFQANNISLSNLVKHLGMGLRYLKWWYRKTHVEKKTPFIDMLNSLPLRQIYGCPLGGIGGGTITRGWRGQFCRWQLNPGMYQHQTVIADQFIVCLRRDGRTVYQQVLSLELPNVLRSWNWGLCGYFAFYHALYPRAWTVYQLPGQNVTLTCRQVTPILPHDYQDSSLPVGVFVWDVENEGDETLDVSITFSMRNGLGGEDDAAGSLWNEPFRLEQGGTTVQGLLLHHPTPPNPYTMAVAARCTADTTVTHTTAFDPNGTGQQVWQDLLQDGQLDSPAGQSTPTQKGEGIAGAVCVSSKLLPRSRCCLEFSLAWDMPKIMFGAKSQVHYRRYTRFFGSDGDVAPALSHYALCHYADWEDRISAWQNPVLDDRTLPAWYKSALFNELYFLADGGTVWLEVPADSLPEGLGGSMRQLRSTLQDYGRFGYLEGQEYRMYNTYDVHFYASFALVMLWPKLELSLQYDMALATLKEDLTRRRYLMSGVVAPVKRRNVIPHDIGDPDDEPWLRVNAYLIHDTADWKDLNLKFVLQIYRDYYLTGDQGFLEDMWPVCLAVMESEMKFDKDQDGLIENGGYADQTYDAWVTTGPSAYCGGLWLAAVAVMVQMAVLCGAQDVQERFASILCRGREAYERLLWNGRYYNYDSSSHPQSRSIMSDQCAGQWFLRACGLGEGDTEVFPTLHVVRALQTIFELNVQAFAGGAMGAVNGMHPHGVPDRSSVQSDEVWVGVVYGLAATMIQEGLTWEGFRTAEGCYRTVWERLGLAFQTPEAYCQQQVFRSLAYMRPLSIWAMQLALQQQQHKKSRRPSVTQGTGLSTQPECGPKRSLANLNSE
Put plainly: Fluorescent labeling of mouse brain lysate, GBA2. The note with it: 30 min, 37 °C. Here is the method: We next investigated their labeling efficiency and selectivity toward GBA in mouse brain lysate at pH 5.2 (containing 0.2 % taurocholate and 0.1 % Triton‐100) and pH 5.8 as respective optimal conditions for GBA and GBA2 activities (Figure 7). […] Importantly, no labelling of GBA2 was observed up to 1000 nM, showing good GBA selectivity.
Labeling by broad‐spectrum β‐glucosidase ABP 8 is shown for comparison (100 nM, pH 5.2 or pH 5.8, 30 min, 37 °C).
Fluorescent labeling with broad‐spectrum ABP 8 was performed at 100 nM ABP concentration at 37 °C for 30 min at pH 5.2 (with 0.1 % (v/v) Triton X‐100 and 0.2 % (w/v) sodium taurocholate) or pH 5.8 respectively. Samples were then denatured with 4 μL Laemmli (5x) sample buffer and heated at 98 °C for 5 minutes. Proteins were resolved by electrophoresis in 10 % SDS‐PAGE gels, running at a constant of 90 V for 30 minutes followed by 120 V for approximately 60 minutes. Wet slab gels were scanned on fluorescence using a Typhoon FLA9500 Imager (GE Healthcare) using λEX 635 nm; λEM >665 nm and images were processed using ImageLab 5.2.1 (BioRad).

The IC50 is the concentration that gives 50% inhibition. Regarding `CCCCCCCCN1[C@@H]2[C@H](Cn3cc(CNC(=O)CCCCC[N+]4=C(/C=C/C=C/C=C5/N(C)c6ccccc6C5(C)C)C(C)(C)c5ccccc54)nn3)[C@@H](O)[C@H](O)[C@@H](O)[C@@H]21` (stereo partly drawn) [ABP 6], the “gel-detection limit (ABP concentration)” value on rhGBA came out at 1 nM. The IC50 in test [1] was greater than 100 µM. In addition, the “ABP concentration up to which no labelling of GBA2 was observed” value in test [2] was greater than 1000 nM.
